The target in experiment [1] is T1, SUMO-activating enzyme (Homo sapiens, UniProt Q9UBT2). Put plainly: blockers of UBC9-mediated SUMO conjugation – biochemical, AlphaScreen, SUMOylation inhibitor project, confirmation (AID 2018). In kind it is functional. For orientation: In Alpha technology, singlet oxygen from a donor bead excites a nearby acceptor bead.
In experiment [2] the target is T2, Apoptotic protease-activating factor 1 (Homo sapiens, UniProt O14727).
T2 sequence (O14727 whole entry): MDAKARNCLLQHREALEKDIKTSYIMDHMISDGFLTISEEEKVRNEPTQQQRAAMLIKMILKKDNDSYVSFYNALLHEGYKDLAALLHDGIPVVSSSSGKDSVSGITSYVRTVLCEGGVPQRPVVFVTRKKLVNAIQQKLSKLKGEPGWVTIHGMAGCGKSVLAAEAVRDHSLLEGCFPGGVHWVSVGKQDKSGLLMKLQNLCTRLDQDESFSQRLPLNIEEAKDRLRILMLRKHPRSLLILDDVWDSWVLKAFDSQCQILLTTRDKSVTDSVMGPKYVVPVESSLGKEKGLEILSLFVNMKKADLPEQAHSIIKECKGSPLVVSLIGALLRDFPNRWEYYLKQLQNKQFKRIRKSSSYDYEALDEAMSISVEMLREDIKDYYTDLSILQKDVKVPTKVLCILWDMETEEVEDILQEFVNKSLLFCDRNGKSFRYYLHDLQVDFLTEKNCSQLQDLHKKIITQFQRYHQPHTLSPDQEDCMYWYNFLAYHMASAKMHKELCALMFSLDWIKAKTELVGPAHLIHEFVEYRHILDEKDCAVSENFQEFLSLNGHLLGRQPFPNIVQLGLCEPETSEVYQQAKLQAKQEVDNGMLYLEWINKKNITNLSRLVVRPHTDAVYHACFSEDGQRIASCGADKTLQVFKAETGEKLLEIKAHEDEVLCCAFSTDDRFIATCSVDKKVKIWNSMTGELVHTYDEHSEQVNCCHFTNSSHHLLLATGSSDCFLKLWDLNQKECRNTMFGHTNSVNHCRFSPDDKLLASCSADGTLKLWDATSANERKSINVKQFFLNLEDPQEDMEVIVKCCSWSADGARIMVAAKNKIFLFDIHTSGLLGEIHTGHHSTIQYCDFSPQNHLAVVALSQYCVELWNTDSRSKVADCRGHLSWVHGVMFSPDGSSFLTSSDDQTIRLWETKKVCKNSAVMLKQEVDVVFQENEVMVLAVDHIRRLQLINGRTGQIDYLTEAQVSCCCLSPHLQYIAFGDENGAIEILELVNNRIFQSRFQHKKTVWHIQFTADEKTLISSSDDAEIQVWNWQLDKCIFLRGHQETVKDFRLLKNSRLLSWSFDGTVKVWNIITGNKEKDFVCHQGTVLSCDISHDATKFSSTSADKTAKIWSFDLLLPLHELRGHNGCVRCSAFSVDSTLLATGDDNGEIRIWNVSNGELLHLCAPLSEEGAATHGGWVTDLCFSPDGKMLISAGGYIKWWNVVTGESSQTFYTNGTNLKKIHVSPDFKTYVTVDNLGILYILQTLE
In kind it is functional.

For experiment [3], the target named is T1, SUMO-activating enzyme. Put plainly: blockers of SAE1/SAE2–UBC9 SUMO transfer – biochemical, HTRF, uHTS, primary screen (AID 2006). The format is protein-complex assay. For orientation: In TR-FRET formats the signal depends on donor and acceptor labels being close together.
The target in experiment [4] is T3, Replicative DNA helicase DnaB (Mycobacterium tuberculosis, UniProt P9WMR3).
T3 sequence (P9WMR3 whole entry): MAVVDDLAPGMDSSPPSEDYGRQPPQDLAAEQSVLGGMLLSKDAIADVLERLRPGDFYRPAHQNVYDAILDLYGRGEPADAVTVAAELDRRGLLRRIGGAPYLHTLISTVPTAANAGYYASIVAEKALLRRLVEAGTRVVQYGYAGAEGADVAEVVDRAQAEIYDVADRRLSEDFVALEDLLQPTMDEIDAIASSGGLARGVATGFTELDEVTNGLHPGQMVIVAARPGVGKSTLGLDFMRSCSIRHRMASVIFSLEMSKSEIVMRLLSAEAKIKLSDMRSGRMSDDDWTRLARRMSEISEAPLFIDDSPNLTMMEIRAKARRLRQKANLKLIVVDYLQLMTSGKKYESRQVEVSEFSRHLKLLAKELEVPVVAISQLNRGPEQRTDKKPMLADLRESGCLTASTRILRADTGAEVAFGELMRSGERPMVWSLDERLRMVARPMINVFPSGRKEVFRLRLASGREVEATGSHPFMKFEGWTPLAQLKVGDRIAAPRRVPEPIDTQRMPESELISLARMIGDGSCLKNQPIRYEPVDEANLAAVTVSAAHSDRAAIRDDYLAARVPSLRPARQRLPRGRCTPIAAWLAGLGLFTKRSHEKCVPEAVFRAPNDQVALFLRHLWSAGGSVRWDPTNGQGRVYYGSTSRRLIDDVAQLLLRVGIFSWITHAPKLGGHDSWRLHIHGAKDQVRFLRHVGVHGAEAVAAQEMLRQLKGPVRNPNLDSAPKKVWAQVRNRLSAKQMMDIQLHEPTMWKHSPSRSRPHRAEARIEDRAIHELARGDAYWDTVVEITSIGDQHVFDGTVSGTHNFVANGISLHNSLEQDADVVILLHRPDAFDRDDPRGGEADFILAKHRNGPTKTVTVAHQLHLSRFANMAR
Put plainly: DnaB intein splicing inhibitors, dose response, biochemical, cell-free fluorescence (AID 449749). The format is functional.

As usually defined, the IC50 is the concentration that inhibits the measured activity by half. For orientation: AC50 means the concentration at which the activity in the assay is half-maximal.

The structures appear in SMILES notation. The source made the active and inactive calls. For most assays here, no stated cut-off is given here; in the data, actives have a measured IC50 and inactives only a lower limit.

T1 sequence (Q9UBE0 whole entry): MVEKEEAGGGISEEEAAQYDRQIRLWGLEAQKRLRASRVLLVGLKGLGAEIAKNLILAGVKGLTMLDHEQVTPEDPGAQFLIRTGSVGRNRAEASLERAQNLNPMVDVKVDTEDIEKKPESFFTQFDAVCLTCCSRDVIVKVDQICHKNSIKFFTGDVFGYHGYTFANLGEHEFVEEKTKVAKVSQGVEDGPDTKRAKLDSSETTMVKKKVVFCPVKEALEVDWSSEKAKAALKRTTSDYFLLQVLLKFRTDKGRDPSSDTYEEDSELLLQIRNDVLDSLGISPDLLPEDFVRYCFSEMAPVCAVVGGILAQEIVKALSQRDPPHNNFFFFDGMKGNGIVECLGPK
T1 sequence (Q9UBT2 whole entry): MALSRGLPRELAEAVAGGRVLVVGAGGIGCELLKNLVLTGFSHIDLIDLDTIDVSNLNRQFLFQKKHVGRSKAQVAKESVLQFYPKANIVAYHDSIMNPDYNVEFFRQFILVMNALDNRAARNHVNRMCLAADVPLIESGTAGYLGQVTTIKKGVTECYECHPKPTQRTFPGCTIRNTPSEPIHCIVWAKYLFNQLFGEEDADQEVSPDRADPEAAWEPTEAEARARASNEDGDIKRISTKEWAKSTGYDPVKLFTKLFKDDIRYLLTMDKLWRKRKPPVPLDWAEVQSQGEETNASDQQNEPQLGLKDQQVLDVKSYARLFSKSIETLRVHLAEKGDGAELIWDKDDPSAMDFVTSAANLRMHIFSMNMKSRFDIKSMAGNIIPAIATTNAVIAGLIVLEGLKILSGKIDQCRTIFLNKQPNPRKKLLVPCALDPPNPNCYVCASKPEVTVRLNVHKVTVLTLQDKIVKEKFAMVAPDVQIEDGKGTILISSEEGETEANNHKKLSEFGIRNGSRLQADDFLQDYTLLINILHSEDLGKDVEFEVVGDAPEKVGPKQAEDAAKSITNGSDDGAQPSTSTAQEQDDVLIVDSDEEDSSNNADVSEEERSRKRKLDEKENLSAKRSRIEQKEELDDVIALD

Turning to `Nc1c(N2CCCC2)cc(Cl)c2nonc12`, the IC50 at SUMO-activating enzyme [1] was 2.16 µM (active); in experiment [2], 11 µM (active); at SUMO-activating enzyme [3], 5.6 µM (active). The AC50 in experiment [4] is 8.9 µM (active).

Consider `O=C(NNc1cc(N2CCOCC2)nc(N2CCOCC2)n1)c1ccc([N+](=O)[O-])cc1`, for which the IC50 on SUMO-activating enzyme [1] is 6.57 µM (active); in experiment [2], 13.6 µM (active); at SUMO-activating enzyme [3], 15.8 µM (active).

Consider `Oc1ccc(/N=C/c2ccc(OCc3ccccc3)cc2)cc1`, for which the AC50 in experiment [4] was > 380 µM (inactive).

(Values after ChEMBL document CHEMBL1201862, “PubChem BioAssay data set” (2004).)
